This note sets out measurements from ChEMBL document CHEMBL1127211, “Biselectrostatic interaction with DNA as potential anti-turmor agents: novel 2,11-diamino-5,8-dithiaundecane derivatives” (1993).

Values after ≈ are worked out from the molar mass of the structure shown.

Holding throughout (format): functional
Common to all, as to conditions: Homo sapiens, read-out: LD50 (the source's name)

One assay concerns COLO 205. The assay can be described thus: Tested for its in vitro cytotoxicity against COLO-205 cells.
For another assay, the system named is HEp-2. Description: Tested for its in vitro cytotoxicity against HEP-2 cells.
In the next assay the test system is HeLa. The assay can be described thus: Tested for its in vitro cytotoxicity against Hela cells.
Assay [1] can be described thus: Tested for its in vitro cytotoxicity against KB cells.

In the case of `NCCCSCC(COc1ccc(-c2ccccc2)cc1)SCCCN` (stereo unspecified), the CC50 in the assay with COLO 205 came to 1.05 µg/mL (≈ 2.69 µM); with HEp-2, 1.45 µg/mL (≈ 3.71 µM); in the assay on HeLa it was 0.68 µg/mL (≈ 1.74 µM); in assay [1], 0.92 µg/mL (≈ 2.36 µM).

For `NCCCSCC(COc1cccc(-c2ccccc2)c1)SCCCN` (stereo unspecified), the CC50 with COLO 205 is 1.41 µg/mL (≈ 3.61 µM); with HEp-2, 1.36 µg/mL (≈ 3.48 µM); in the assay with HeLa, 1.2 µg/mL (≈ 3.07 µM); in assay [1], 1.55 µg/mL (≈ 3.97 µM).

Regarding `NCCCSCC(COc1ccc(NC(=O)c2cc(-c3ccccc3)nc3ccccc23)cc1)SCCCN` (stereo unspecified), the CC50 in the assay on COLO 205 is 5.2 µg/mL (≈ 9.27 µM); with HEp-2, 1.92 µg/mL (≈ 3.42 µM); with HeLa, 6.18 µg/mL (≈ 11 µM).
